Key:
[1] = biological target: Matrix metalloproteinase-9 (Homo sapiens, UniProt P14780); test: Inhibition of MMP-9 (Matrix metalloprotease-9)
[2] = species: Homo sapiens; test: In vitro inhibition for TNF-alpha production from LPS-stimulated human whole blood; assay type: functional
[3] = biological target: Stromelysin-1 (Homo sapiens, UniProt P08254); test: Inhibition of MMP-3 (Matrix metalloprotease-3)
[4] = biological target: T1, Interstitial collagenase (Homo sapiens, UniProt P03956); test: Inhibition of MMP-1 (Matrix metalloprotease-1)
T1 sequence (P03956 whole entry): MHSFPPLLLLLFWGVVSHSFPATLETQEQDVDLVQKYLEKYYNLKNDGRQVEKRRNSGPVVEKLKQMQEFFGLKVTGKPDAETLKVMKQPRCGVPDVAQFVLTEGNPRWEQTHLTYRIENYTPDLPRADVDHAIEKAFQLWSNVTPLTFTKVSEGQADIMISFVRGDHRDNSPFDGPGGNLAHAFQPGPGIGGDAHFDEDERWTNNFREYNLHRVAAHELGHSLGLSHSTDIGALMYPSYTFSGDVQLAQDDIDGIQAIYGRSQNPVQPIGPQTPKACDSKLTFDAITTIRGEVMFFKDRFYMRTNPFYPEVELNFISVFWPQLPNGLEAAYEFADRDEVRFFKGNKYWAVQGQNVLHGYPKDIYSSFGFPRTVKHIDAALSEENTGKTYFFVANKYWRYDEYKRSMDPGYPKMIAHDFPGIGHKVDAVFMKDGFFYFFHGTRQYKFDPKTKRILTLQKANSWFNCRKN

Matrix metalloproteinase-9, sequence (P14780 whole entry): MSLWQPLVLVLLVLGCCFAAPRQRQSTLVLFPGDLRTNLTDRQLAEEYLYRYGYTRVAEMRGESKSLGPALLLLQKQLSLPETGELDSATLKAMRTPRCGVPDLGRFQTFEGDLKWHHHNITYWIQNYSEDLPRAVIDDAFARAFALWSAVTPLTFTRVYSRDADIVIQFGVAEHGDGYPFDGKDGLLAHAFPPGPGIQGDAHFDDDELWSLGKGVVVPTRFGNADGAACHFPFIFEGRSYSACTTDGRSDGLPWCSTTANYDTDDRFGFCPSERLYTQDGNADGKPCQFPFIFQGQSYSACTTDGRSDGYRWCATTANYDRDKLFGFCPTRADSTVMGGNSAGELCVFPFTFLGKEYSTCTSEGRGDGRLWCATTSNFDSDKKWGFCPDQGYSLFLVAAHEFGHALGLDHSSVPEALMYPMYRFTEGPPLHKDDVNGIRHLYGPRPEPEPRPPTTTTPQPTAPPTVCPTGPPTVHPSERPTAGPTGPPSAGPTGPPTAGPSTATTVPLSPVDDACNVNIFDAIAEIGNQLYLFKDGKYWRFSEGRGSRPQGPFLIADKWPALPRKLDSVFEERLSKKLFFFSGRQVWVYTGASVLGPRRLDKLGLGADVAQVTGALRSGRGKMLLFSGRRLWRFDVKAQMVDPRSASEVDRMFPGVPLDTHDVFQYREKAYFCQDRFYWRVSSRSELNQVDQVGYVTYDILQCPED
Stromelysin-1, sequence (P08254 whole entry): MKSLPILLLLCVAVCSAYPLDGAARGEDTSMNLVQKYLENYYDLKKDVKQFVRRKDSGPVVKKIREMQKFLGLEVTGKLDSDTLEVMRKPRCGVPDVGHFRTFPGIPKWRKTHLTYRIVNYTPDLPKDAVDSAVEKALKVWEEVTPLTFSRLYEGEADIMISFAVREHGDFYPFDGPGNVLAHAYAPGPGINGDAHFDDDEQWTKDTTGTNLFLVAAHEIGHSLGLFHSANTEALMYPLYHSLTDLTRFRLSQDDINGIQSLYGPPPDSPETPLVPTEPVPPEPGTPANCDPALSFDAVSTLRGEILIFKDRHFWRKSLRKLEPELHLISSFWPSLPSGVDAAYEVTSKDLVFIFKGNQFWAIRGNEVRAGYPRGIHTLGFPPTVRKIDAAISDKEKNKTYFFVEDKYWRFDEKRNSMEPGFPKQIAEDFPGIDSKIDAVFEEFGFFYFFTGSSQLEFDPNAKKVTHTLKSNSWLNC

| Structure (SMILES) | Ki [1] [nM] | IC50 [2] [nM] | Ki [3] [nM] | Ki [4] [nM] |
| --- | --- | --- | --- | --- |
| CNC(=O)[C@@H]1CCCCNC(=O)CO[C@H](C(=O)NO)[C@@H](CC(C)C)C(=O)N1 | 2.6 | 6500 | 24.1 | 2.8 |
| CNC(=O)[C@@H]1Cc2ccc(cc2)OCCC[C@H](C(=O)NO)[C@@H](CC(C)C)C(=O)N1 | 1.8 | 1200 | 32.7 | 1.2 |
| CNC(=O)[C@@H](Cc1ccc(OC)cc1)NC(=O)[C@H](CC(C)C)[C@H](C)C(=O)NO | 0.13 | 1800 | 1.93 | 0.87 |

— ChEMBL document CHEMBL1131224, “Design and synthesis of cyclic inhibitors of matrix metalloproteinases and TNF-alpha production” (J Med Chem, 1998)
